For experiment [1], the target named is T1, human recombinant kinase full-length Akt1 (Homo sapiens, UniProt P31749).
T1 construct: human recombinant kinase full-length Akt1; His; purchased Invitrogen PV 3599; host or cells: insect cells
Put plainly: Akt1 kinase assay (TR-FRET). It counts as biochemical. The note with it: 10 μM ATP, 1 μM peptide substrate, 60 min at 22° C.; read-out: IC50 Akt1 Biological Assay 1.0). The source says:
Biological Assay 1.0: Akt1 Kinase Assay
Akt1 inhibitory activity of compounds of the present invention may be quantified employing the Akt1 TR-FRET assay as described in the following paragraphs.
His-tagged human recombinant kinase full-length Akt1 expressed in insect cells was purchased form Invitrogen (part number PV 3599). As substrate for the kinase reaction the biotinylated peptide biotin-Ahx-KKLNRTLSFAEPG (C-terminus in amide form) was used which can be purchased e.g. from the company Biosynthan GmbH (Berlin-Buch, Germany).
(§1) For the assay 50 nl of a 100 fold concentrated solution of the test compound in DMSO was pipetted into a black low volume 384 well microtiter plate (Greiner Bio-One, Frickenhausen, Germany), 2 μl of a solution of Akt1 in assay buffer [50 mM TRIS/HCl pH 7.5, 5 mM MgCl2, 1 mM dithiothreitol, 0.02% (v/v) Triton X-100 (Sigma)] were added and the mixture was incubated for 15 min at 22° C. to allow pre-binding of the test compounds to the enzyme before the start of the kinase reaction. Then the kinase reaction was started by the addition of 3 μl of a solution of adenosine-tri-phosphate (ATP, 16.7 μM=>final conc. in the 5 μl assay volume is 10 μM) and substrate (1.67 μM=>final conc. in the 5 μl assay volume is 1 μM) in assay buffer and the resulting mixture was incubated for a reaction time of 60 min at 22° C. The concentration of Akt1 in the assay was adjusted depending of the activity of the enzyme lot and was chosen appropriate to have the assay in the linear range, typical enzyme concentrations were in the range of about 0.05 ng/μl (final conc. in the 5 μl assay volume).
(§2) The reaction was stopped by the addition of 5 μl of a solution of HTRF detection reagents (200 nM streptavidine-XL665 [Cisbio] and 1.5 nM anti-phosho-Serine antibody [Millipore, cat. #35-001] and 0.75 nM LANCE Eu-W 1024 labeled anti-mouse IgG antibody [Perkin Elmer]) in an aqueous EDTA-solution (100 mM EDTA, 0.1% (w/v) bovine serum albumin in 50 mM HEPES/NaOH pH 7.5). The resulting mixture was incubated 1 h at 22° C. to allow the binding of the biotinylated phosphorylated peptide to the streptavidine-XL665 and the antibodies. Subsequently the amount of phosphorylated substrate was evaluated by measurement of the resonance energy transfer from the anti-mouse-IgG-Eu-Chelate to the streptavidine-XL665. Therefore, the fluorescence emissions at 620 nm and 665 nm after excitation at 350 nm was measured in a HTRF reader, e.g. a Rubystar (BMG Labtechnologies, Offenburg, Germany) or a Viewlux (Perkin-Elmer). The ratio of the emissions at 665 nm and at […] was taken as the measure for the amount of phosphorylated substrate. The data were normalised (enzyme reaction without inhibitor=0% inhibition, all other assay components but no enzyme=100% inhibition). Normally test compound were tested on the same microtiter plate at 10 different concentrations in the range of 20 μM to 1 nM (20 μM, 6.7 μM, 2.2 μM, 0.74 μM, 0.25 μM, 82 nM, 27 nM, 9.2 nM, 3.1 nM and 1 nM, dilution series prepared before the assay at the level of the 100 fold conc. stock solutions by serial 1:3 dilutions) in duplicate values for each concentration and 1050 values were calculated by a 4 parameter fit using an inhouse software.
(Time-resolved FRET reads energy transfer from a long-lived donor to a nearby acceptor.)

Experiment [2] deals with T2, human recombinant kinase full-length Akt2 (Homo sapiens, UniProt P31751).
T2 construct: human recombinant kinase full-length Akt2; His; purchased Invitrogen PV 3975; host or cells: insect cells
T2 sequence (P31751 whole entry): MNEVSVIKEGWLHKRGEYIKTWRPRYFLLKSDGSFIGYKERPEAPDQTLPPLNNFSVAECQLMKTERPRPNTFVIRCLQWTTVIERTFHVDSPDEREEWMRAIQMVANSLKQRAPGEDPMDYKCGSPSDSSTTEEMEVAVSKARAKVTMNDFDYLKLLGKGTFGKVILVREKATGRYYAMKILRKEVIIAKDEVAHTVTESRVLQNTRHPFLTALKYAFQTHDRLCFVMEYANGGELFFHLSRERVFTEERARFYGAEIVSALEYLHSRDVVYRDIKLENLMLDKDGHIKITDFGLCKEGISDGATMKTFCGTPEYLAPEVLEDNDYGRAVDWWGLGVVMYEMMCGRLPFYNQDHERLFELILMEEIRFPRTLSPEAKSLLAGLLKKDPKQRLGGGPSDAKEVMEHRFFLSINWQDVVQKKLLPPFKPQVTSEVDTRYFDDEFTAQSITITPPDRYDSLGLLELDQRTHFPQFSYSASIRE
Put plainly: Akt2 kinase assay (TR-FRET). Type of experiment: biochemical. The settings on record: Akt2 activated by PDK1, 10 μM ATP, 1 μM peptide substrate, 60 min at 22° C.; read-out: IC50 Akt2 (Biological Assay 2.0).
Description: Biological Assay 2.0: Akt2 Kinase Assay
Akt2 inhibitory activity of compounds of the present invention was quantified employing the Akt2 TR-FRET assay as described in the following paragraphs.
as §1, with “His-tagged human recombinant kinase full-length Akt2 expressed in insect cells and activated by PDK1 was purchased form Invitrogen (part number PV 3975). As substrate for the kinase reaction the biotinylated peptide biotin-Ahx-KKLNRTLSFAEPG (C-terminus in amide form) was used which can be purchased e.g. from the company Biosynthan GmbH (Berlin-Buch, Germany). For” for “For”, “Akt2” for “Akt1”, “0.2” for “0.05”
as §2, with “a TR-FRET” for “a HTRF”, “inhibition).” for “inhibition). Normally test compound were tested on the same microtiter plate at 10 different concentrations in the range of 20 μM to 1 nM (20 μM, 6.7 μM, 2.2 μM, 0.74 μM, 0.25 μM, 82 nM, 27 nM, 9.2 nM, 3.1 nM and 1 nM, dilution series prepared before the assay at the level of the 100 fold conc. stock solutions by serial 1:3 dilutions) in duplicate values for each concentration and 1050 values were calculated by a 4 parameter fit using an inhouse software.”

Experiment [3] relates to Akt phosphorylation (Ser473) in MCF7 cells. Put plainly: Cellular PI3K/Akt pathway assay (Phospho-Akt1 (Ser473) sandwich ELISA). Type of experiment: cell-based. The settings on record: Homo sapiens, β-Heregulin stimulated, 48 h incubation, read-out: IC50 p-Akt (Biological Assay 5.0).
Description: Biological Assay 5.0: Cellular PI3K/Akt Pathway Assay
In order to study the cellular activity of the compounds according to the present invention, an Enzyme Linked Immunosorbent Assay (ELISA)-based assay may be used to investigate the inhibitory effect on Akt phosphorylation.
The ELISA Kit detects endogenous levels of phosphorylated Akt protein. […] After incubation with cell lysates, the coated antibody captures the phosphorylated Akt protein. […] The magnitude of optical density for this developed color is proportional to the quantity of phosphorylated Akt protein. MCF7 cells (ATCC HTB-22) are seeded into 96 well fate bottom plates at a density of 10000 cells/well. 24 hours after seeding, the cells are serum starved using low-serum medium (IMEM media including 0.1% charcoal treated FCS (FCS: fetal calf serum)). After 24 hours 1 μl each of the compound dilutions (test compounds were dissolved as 10 mM solutions in dimethylsulfoxide (DMSO) and subsequently diluted) are added into each well of the 96 well plates and incubated for 48 h at 37° C. in a humidified athmosphere containing 5% CO2. To stimulate Akt phosphorylation, β-Heregulin (20 ng/mL β-HRG) is added in parallel to the compounds. Wells containing unstimulated control cells (no β-Heregulin stimulation) are incubated with or without the diluted compound. Wells containing untreated control cells (no compound) are filled with medium containing 0.5% v:v DMSO and are or are not stimulated with 3-Heregulin.
Cells are harvested and lysed with brief sonification in 1× cell lysis buffer (20 mM Tris (pH7.5), 150 mM NaCl, 1 mM ethylene diaminetetraacetate (EDTA), 1 mM ethylene glycolbis(2-aminoethyl)-N,N,N′,N′-tetraacetic acid (EGTA), 1 vol % Triton X-100, 2.5 mM sodium pyrophosphate, 1 mM β-glycerolphosphate, 1 mM Na3VO4, 1 μg/mL leupeptin). The lysate is centrifuged for 10 min. at 4° C. and the supernatant is transferred to a new tube. […] The absorbance is measured at λ=450 nm (Wallac Victor2; Perkin Elmer, USA) within 30 min. after adding the STOP solution. […]

T1 sequence (P31749 whole entry): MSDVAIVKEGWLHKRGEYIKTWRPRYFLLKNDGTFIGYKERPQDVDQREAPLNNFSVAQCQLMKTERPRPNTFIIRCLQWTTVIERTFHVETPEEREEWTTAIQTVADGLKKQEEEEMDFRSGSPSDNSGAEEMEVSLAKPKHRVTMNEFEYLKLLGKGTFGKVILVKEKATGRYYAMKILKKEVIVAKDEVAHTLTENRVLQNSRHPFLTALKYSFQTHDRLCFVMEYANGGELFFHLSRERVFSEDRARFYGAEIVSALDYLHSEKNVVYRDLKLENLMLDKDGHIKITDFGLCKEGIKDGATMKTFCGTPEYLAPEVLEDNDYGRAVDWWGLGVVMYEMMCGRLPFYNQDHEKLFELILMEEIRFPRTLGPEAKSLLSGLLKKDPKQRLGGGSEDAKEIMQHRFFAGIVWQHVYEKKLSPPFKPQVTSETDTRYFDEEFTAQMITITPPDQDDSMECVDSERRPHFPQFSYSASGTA

One may read the IC50 as the point on the concentration scale where inhibition reaches its midpoint. `Fc1ccc(-c2nc(C3CCN(Cc4ccc(-c5ncn6ccnc6c5-c5ccccc5)cc4)CC3)n[nH]2)nc1` [Example 11.1, 7-(4-{4-[5-(5-fluoro-pyridin-2-yl)-1H-[1,2,4]triazol-3-yl]-piperidin-1-ylmethyl}-phenyl)-8-phenyl-imidazo[1,2-c]pyrimidine]: the IC50 stood at 19 nM in experiment [1] and 98 nM in experiment [2]. As to `Cc1ccc(-c2nc(C3CCN(Cc4ccc(-c5ncn6ccnc6c5-c5ccccc5)cc4)CC3)n[nH]2)nc1C` [Example 10.0, 7-(4-{4-[5-(5,6-dimethyl-pyridin-2-yl)-1H-[1,2,4]triazol-3-yl]-piperidin-1-ylmethyl}-phenyl)-8-phenyl-imidazo[1,2-c]pyrimidine], the IC50 was found to be 7 nM in experiment [1] and 38 nM in experiment [2].

Regarding `c1ccc(-c2c(-c3ccc(CN4CCC(c5n[nH]c(-c6cnccn6)n5)CC4)cc3)ncn3ccnc23)cc1` [Example 11.0, 8-phenyl-7-{4-[4-(5-pyrazin-2-yl-1H-[1,2,4]triazol-3-yl)-piperidin-1-ylmethyl]-phenyl}-imidazo[1,2-c]pyrimidine], the IC50 in experiment [1] worked out at 29 nM; in experiment [2], 445 nM. As for `Brc1ccc(-c2nc(C3CCN(Cc4ccc(-c5ncn6ccnc6c5-c5ccccc5)cc4)CC3)n[nH]2)nc1` [Example 9.0, 7-(4-{4-[5-(5-bromo-pyridin-2-yl)-1H-[1,2,4]triazol-3-yl]-piperidin-1-ylmethyl}-phenyl)-8-phenyl-imidazo[1,2-c]pyrimidine], the IC50 in experiment [1] came out at 18 nM; in experiment [2] it was 185 nM. As for `FC(F)(F)c1ccnc(-c2nc(C3CCN(Cc4ccc(-c5ncn6ccnc6c5-c5ccccc5)cc4)CC3)n[nH]2)c1` [Example 15.0, 8-phenyl-7-(4-{4-[5-(4-trifluoromethyl-pyridin-2-yl)-1H-[1,2,4]triazol-3-yl]-piperidin-1-ylmethyl}-phenyl)-imidazo[1,2-c]pyrimidine], the IC50 was 22 nM in experiment [1] and 222 nM in experiment [2]. With `Cc1nc(-c2ccc(CN3CCC(c4n[nH]c(-c5cnccn5)n4)CC3)cc2)c(-c2ccccc2)c2nccn12` [Example 7.0, 5-methyl-8-phenyl-7-{4-[4-(5-pyrazin-2-yl-1H-[1,2,4]triazol-3-yl)-piperidin-1-ylmethyl]-phenyl}-imidazo[1,2-c]pyrimidine], the IC50 in experiment [1] is 12 nM; in experiment [2], 334 nM.

With `Cc1ccc(-c2nc(C3CCN(Cc4ccc(-c5nc(C)n6ccnc6c5-c5ccccc5)cc4)CC3)n[nH]2)nc1C` [Example 5.0, 7-(4-{4-[5-(5,6-dimethyl-pyridin-2-yl)-1H-[1,2,4]triazol-3-yl]-piperidin-1-ylmethyl}-phenyl)-5-methyl-8-phenyl-imidazo[1,2-c]pyrimidine], the IC50 was found to be 3 nM in experiment [1] and 27 nM in experiment [2]. In the case of `Cc1nc(-c2ccc(CN3CC(c4n[nH]c(-c5ccccn5)n4)C3)cc2)c(-c2ccccc2)c2nccn12` [Example 6.0, 5-methyl-8-phenyl-7-{4-[3-(5-pyridin-2-yl-1H-[1,2,4]triazol-3-yl)-azetidin-1-ylmethyl]-phenyl}-imidazo[1,2-c]pyrimidine], the IC50 in experiment [1] was determined as 3 nM; in experiment [2], 81 nM. As to `Cc1ccc(-c2nc(C3CCN(Cc4ccc(-c5ncn6ccnc6c5-c5ccccc5)cc4)CC3)n[nH]2)nc1` [Example 12.0, 7-(4-{4-[5-(5-methyl-pyridin-2-yl)-1H-[1,2,4]triazol-3-yl]-piperidin-1-ylmethyl}-phenyl)-8-phenyl-imidazo[1,2-c]pyrimidine], the IC50 came to 8 nM in experiment [1] and 50 nM in experiment [2]. In the case of `Cc1cc(C)nc(-c2nc(C3CCN(Cc4ccc(-c5ncn6ccnc6c5-c5ccccc5)cc4)CC3)n[nH]2)c1` [Example 14.0, 7-(4-{4-[5-(4,6-dimethyl-pyridin-2-yl)-1H-[1,2,4]triazol-3-yl]-piperidin-1-ylmethyl}-phenyl)-8-phenyl-imidazo[1,2-c]pyrimidine], the results for the IC50 in experiment [1] and in experiment [2] were 7 nM and 16 nM, respectively. `Cc1nc(-c2ccc(CN3CCC(c4n[nH]c(-c5ncccn5)n4)CC3)cc2)c(-c2ccccc2)c2nccn12` [Example 8.0, 5-methyl-8-phenyl-7-{4-[4-(5-pyrimidin-2-yl-1H-[1,2,4]triazol-3-yl)-piperidin-1-ylmethyl]-phenyl}-imidazo[1,2-c]pyrimidine]: the IC50 in experiment [1] stood at 14 nM; in experiment [2] it was 414 nM. `Cc1nnc2c(-c3ccccc3)c(-c3ccc(CN4CCC(c5n[nH]c(-c6ccccn6)n5)CC4)cc3)ncn12` [Example 4.0, 3-methyl-8-phenyl-7-{4-[4-(5-pyridin-2-yl-1H-[1,2,4]triazol-3-yl)-piperidin-1-ylmethyl]-phenyl}-[1,2,4]triazolo[4,3-c]pyrimidine]: in experiment [3], the IC50 was below 500 nM. Take `c1ccc(-c2c(-c3ccc(CN4CC(c5n[nH]c(-c6ccccn6)n5)C4)cc3)ncn3ccnc23)cc1` [Example 16.0, 8-phenyl-7-{4-[3-(5-pyridin-2-yl-1H-[1,2,4]triazol-3-yl)-azetidin-1-ylmethyl]-phenyl}-imidazo[1,2-c]pyrimidine]: the IC50 in experiment [1] was 12 nM; in experiment [2], 52 nM. For `Clc1cccc(-c2nc(C3CCN(Cc4ccc(-c5ncn6ccnc6c5-c5ccccc5)cc4)CC3)n[nH]2)n1` [Example 13.0, 7-(4-{4-[5-(6-chloro-pyridin-2-yl)-1H-[1,2,4]triazol-3-yl]-piperidin-1-ylmethyl}-phenyl)-8-phenyl-imidazo[1,2-c]pyrimidine], the IC50 in experiment [1] came out at 16 nM; in experiment [2], 132 nM.

These data come from patent US20130310362A1, “FUSED PYRIMIDINES” (BAYER PHARMA AKTIEGESELLSCHAFT, priority 2009, published 2013).
